Laboratory results from ChEMBL document CHEMBL4219048, “Identification of cytotoxic, glutathione-reactive moieties inducing accumulation of reactive oxygen species via glutathione depletion” (Bioorg Med Chem, 2018).
The source made the active and inactive calls. The rule behind the calls is not given here.

How the values were obtained:
HeLa [1] = assay: Induction of GSH depletion in human HeLa cells at 0.1 to 100 uM after 1 hr by GSH/GSSG-glo assay relative to control; type: functional, cell-based
HeLa [2] = assay: Induction of ROS levels in human HeLa cells at 10 uM after 1 hr by CM-H2DCFDA/Hoechst-based fluorescence microscopic analysis relative to 10 uM CDNB; type: functional
HeLa [3] = assay: Induction of ROS induced cytotoxicity in human HeLa cells assessed as reduction in cell viability at 10 uM incubated for 24 hrs measured at 2 hrs interval by propidium iodide-staining based real time live cell imaging analysis; type: functional
U2OS [4] = assay: Induction of ROS levels in human U2OS cells at 10 uM after 30 mins by CM-H2DCFDA/Hoechst-based fluorescence microscopic analysis relative to 10 uM CDNB; type: functional
U2OS [5] = assay: Induction of GSH depletion in human U2OS cells assessed as GSH content at 10 uM by GSH/GSSG-Glo assay relative to DMSO; type: functional
HeLa [6] = assay: Induction of GSH depletion in human HeLa cells at 10 uM after 1 hr by Ellman's reagent based assay; type: functional
[7] = GSH reactivity in PBS buffer assessed as compound-GSH conjugate formation at 100 uM after 1 hr in presence of GSH by UHPLC/ESI-MS method; type: physicochemical
HeLa [8] = assay: Induction of ROS induced cytotoxicity in human HeLa cells assessed as reduction in cell viability at 5 uM incubated for 24 hrs measured at 2 hrs interval by propidium iodide-staining based real time live cell imaging analysis; type: functional
HeLa [9] = assay: Induction of ROS induced cytotoxicity in human HeLa cells assessed as morphological changes at 10 uM incubated for 24 hrs measured after 2 hrs by propidium iodide-staining based real time live cell imaging analysis; type: functional
HeLa [10] = assay: Induction of ROS induced cytotoxicity in human HeLa cells at 10 uM administered after 1 hr pretreatment with NAC incubated for 24 hrs measured at 2 hrs interval by propidium iodide staining based real time live cell imaging analysis; type: functional
HeLa [11] = assay: Induction of ROS induced cytotoxicity in human HeLa cells at 5 uM incubated for 24 hrs in presence of BSO measured at 2 hrs interval by propidium iodide staining based real time live cell imaging analysis; type: functional
HeLa [12] = assay: Induction of GSH depletion in human HeLa cells after 1 hr by GSH/GSSG-glo assay relative to control; type: functional, cell-based
[13] = GSH reactivity in PBS buffer assessed as retention time for compound-GSH conjugate formation at 100 uM after 1 hr in presence of GSH by UHPLC/ESI-MS method; type: physicochemical
HeLa [14] = assay: Induction of ROS induced cytotoxicity in human HeLa cells at 5 uM administered after 1 hr pretreatment with NAC incubated for 24 hrs measured at 2 hrs interval by propidium iodide staining based real time live cell imaging analysis; type: functional
HeLa [15] = assay: Induction of ROS induced cytotoxicity in human HeLa cells at 2.5 uM incubated for 24 hrs in presence of BSO measured at 2 hrs interval by propidium iodide staining based real time live cell imaging analysis; type: functional
HeLa [16] = assay: Induction of GSH depletion in human HeLa cells at 5 uM after 1 hr by Ellman's reagent based assay; type: functional
HeLa [17] = assay: Induction of ROS induced cytotoxicity in human HeLa cells assessed as reduction in cell viability at 2.5 to 20 uM incubated for 24 hrs measured at 2 hrs interval by propidium iodide-staining based live cell imaging analysis; type: functional
HeLa [18] = assay: Induction of GSH depletion in human HeLa cells at 20 uM after 1 hr by Ellman's reagent based assay; type: functional

SMILES	Activity (HeLa [1])	Activity (U2OS [4])	Activity (U2OS [5])	other results
CCCNC(=O)c1c(Cl)nc(Cl)c(Cl)c1Cl	Active	–	–	–
NC(=O)C1CCN(C(=O)c2nc(Cl)c(Cl)c(Cl)c2Cl)CC1	Active	55%	24.15%	Activity (HeLa [2]): 98.33%; Activity (HeLa [3]): Active; Activity (HeLa [6]): Active; Activity [7]: Active
CCCS(=O)(=O)c1ncc(Cl)c(C(=O)Nc2nc3ccc(F)cc3s2)n1	–	97%	11.22%	–
Cc1cccc(NC(=O)c2nc(Cl)c(Cl)c(Cl)c2Cl)c1C	Active	–	–	–
COc1ccc(OC)c(NC(=O)c2c(Cl)nc(Cl)c(Cl)c2Cl)c1	inactive	69%	39.27%	Activity (HeLa [2]): 73.78%; Activity (HeLa [8]): Active; Activity (HeLa [9]): Active; Activity (HeLa [10]): inactive; Activity (HeLa [11]): Active; Activity (HeLa [6]): inactive; Activity [7]: Active; Activity (HeLa [12]): Dose-dependent effect; Retention_time [13]: 3.48 min
Cc1cccc(CS(=O)(=O)c2ncc(Cl)c(C(=O)Nc3nc4ccc(C)cc4s3)n2)c1	–	106%	37.21%	–
O=c1c(Cl)c(Cl)cnn1Cc1nc2ccccc2n1C(F)F	–	111%	31.86%	–
Clc1ncnc2c1oc1ccccc12	–	116%	25.49%	–
O=C(c1c(Cl)nc(Cl)c(Cl)c1Cl)N1CCOCC1	Active	–	–	–
O=C(CN1CCCC1c1ccc2c(c1)OCCO2)Cn1ncc(Cl)c(Cl)c1=O (configuration not stated)	–	163%	19.2%	–
CCS(=O)(=O)c1ncc(Cl)c(C(=O)Nc2c(C(=O)Nc3ccccc3)oc3ccccc23)n1	–	83%	39.62%	–
O=C(Nc1ccccc1Br)c1c(Cl)nc(Cl)c(Cl)c1Cl	Active	91%	36.07%	–
CC(=O)c1c(C)[nH]c(C(=O)Cn2ncc(Cl)c(Cl)c2=O)c1C	Active	100%	32.83%	–
O=C(Cn1ncc(Br)c(Br)c1=O)C12CC3CC(CC(C3)C1)C2	Active	88%	13.2%	–
O=[N+]([O-])c1ccc(Cl)c([N+](=O)[O-])c1	–	–	–	Activity (HeLa [6]): Active
CN(C(=O)Cn1ncc(Br)c(Br)c1=O)C1CCCc2ccccc21 (configuration not stated)	Active	60%	9.56%	Activity (HeLa [2]): 63.96%; Activity (HeLa [8]): Active; Activity (HeLa [9]): Active; Activity (HeLa [14]): inactive; Activity (HeLa [15]): Active; Activity (HeLa [6]): 38%; Activity [7]: Active; Retention_time [13]: 3.41 min; Activity (HeLa [16]): 23.1%
CCN(CC)C(=O)c1cccc(NS(=O)(=O)c2ccc(-n3ncc(Cl)c(Cl)c3=O)cc2)c1	Active	98%	30.8%	–
CC(C)N(C(=O)Cn1ncc(Br)c(Br)c1=O)c1ccccc1	Active	67%	20.43%	–
O=C(Cn1ncc(Cl)c(Cl)c1=O)N1CCc2cc(S(=O)(=O)N3CCCCC3)ccc21	–	104%	35.26%	–
CCCS(=O)(=O)c1ncc(Cl)c(C(=O)Nc2nc(C)c(C(=O)OCC(C)C)s2)n1	–	130%	23.2%	–

SMILES	Activity (HeLa [1])	Activity (U2OS [4])	Activity (U2OS [5])	other results
COc1ccc2nc(NC(=O)c3nc(S(C)(=O)=O)ncc3Cl)sc2c1	–	107%	30.72%	–
COc1ccc(N(C)C(=O)c2nc(Cl)c(Cl)c(Cl)c2Cl)cc1OC	Active	–	–	–
N#Cc1c(Cl)nc(N2CCOCC2)c(Cl)c1Cl	–	82%	22.32%	–
COc1ccc2c(c1)CCCN2S(=O)(=O)c1ccc(-n2ncc(Cl)c(Cl)c2=O)cc1	–	52%	29.49%	–
COCCOc1ccc(CNC(=O)c2nc(Cl)c(Cl)c(Cl)c2Cl)cc1	Active	–	–	–
CC(=O)c1ccc(N2CCN(C(=O)Cn3ncc(Cl)c(Cl)c3=O)CC2)c(F)c1	Active	113%	30.95%	–
O=c1c(Br)c(Br)cnn1Cc1ccccc1	Active	77%	37.49%	–
O=c1c(Cl)c(Cl)cnn1-c1ccc(S(=O)(=O)NCc2cc(-c3ccccc3)no2)cc1	–	129%	24.31%	–
CCOC(=O)C1CCN(C(=O)Cn2ncc(Cl)c(Cl)c2=O)CC1	–	95%	35.47%	–
O=c1c(Br)c(Br)cnn1CC(O)COc1cccc(Br)c1 (configuration not stated)	Active	–	–	–
O=C(Cn1ncc(Cl)c(Cl)c1=O)N(C1=CCCCC1)C1CC1	–	70%	38.9%	–
Cc1nnc(NC(=O)c2nc(S(=O)(=O)Cc3ccccc3)ncc2Cl)s1	–	92%	34.32%	–
O=C(NCc1ccc(Cl)cc1)c1c(Cl)nc(Cl)c(Cl)c1Cl	Active	87%	30.39%	–
O=C(Cn1ncc(Cl)c(Cl)c1=O)N1CCCC1c1ccc2c(c1)OCCO2 (configuration not stated)	Active	–	–	Activity (HeLa [2]): 78.23%; Activity (HeLa [3]): Active; Activity (HeLa [9]): Active; Activity (HeLa [6]): Active; Activity [7]: Active
O=c1cc(Cn2ncc(Cl)c(Cl)c2=O)[nH]c(=O)[nH]1	Active	–	–	Activity (HeLa [2]): 9.73%; Activity (HeLa [17]): inactive; Activity (HeLa [6]): inactive; Activity [7]: Active; Activity (HeLa [18]): 21.3%
CC(NC(=O)Cn1ncc(Cl)c(Cl)c1=O)c1ccc(F)cc1 (configuration not stated)	–	79%	22.59%	–
O=C(Cn1ncc(Cl)c(Cl)c1=O)N(Cc1ccco1)CC(F)(F)F	–	75%	35.84%	–
O=C1CC(c2cccc3ccccc23)CC1=O	–	110%	24.43%	–
COc1cccc(CNC(=O)COC(=O)c2nc(Cl)c(Cl)c(Cl)c2Cl)c1	inactive	–	–	Activity (HeLa [2]): 12.14%; Activity (HeLa [17]): inactive; Activity (HeLa [6]): inactive; Activity [7]: Active
CCS(=O)(=O)c1ncc(Cl)c(C(=O)Nc2ccc(-c3nc4ccc(C)cc4s3)cc2)n1	–	127%	37.49%	–
